We go through two compounds from patent US20070260068A1, “Method for the Preparation of Crystal Forms of Torsemide in a Pure State” (priority 2004, published 2007).

Series [1] is described as follows: stability of the crystal form in an ethanol slurry. It is filed as physicochemical. The protocol:
(§1) In another embodiment of the present invention, torsemide modification I may be made from torsemide modification II by reslurry in ethanol. By the process of the present invention, torsemide modification II is stirred at room temperature in ethanol for a time sufficient to induce the transformation of torsemide modification II to torsemide modification I. Preferably the mixture is stirred for 2 hours. Torsemide modification I is isolated upon filtering the mixture followed by drying under high vacuum at a temperature of about 40° C. to about 60° C. for a sufficient time to complete drying. Drying is complete upon reaching constant weight. It has been observed that torsemide modification I is stable in an ethanol slurry for at least 65 hours.
as §1, with “dimethyl formamide (DMF).” for “ethanol.”, “methods” for “process”, “DMF” for “ethanol”, “I.” for “I. Preferably the mixture is stirred for 2 hours.”, “It has been observed that torsemide modification I is stable in an ethanol slurry for at least 65 hours.” left out

The nature of series [2]: solubility of amorphous torsemide compared with crystalline forms. In kind it is physicochemical. The settings on record: isolated amorphous torsemide vs crystalline forms incl. those of U.S. 5,914,336, Re. 34,672 and WO 00/20395.

Consider `Cc1cccc(Nc2ccncc2S(=O)(=O)NC(=O)NC(C)C)c1` [torsemide modification I, 1-Isopropyl-3-[(4-m-toluidino-3-pyridyl)sulfonyl] urea], for which the “time stable in an ethanol slurry” value in series [1] is recorded as “at least 65 hours”. Consider `Cc1cccc(Nc2ccncc2S(=O)(=O)NC(=O)NC(C)C)c1` [amorphous torsemide, 1-Isopropyl-3-[(4-m-toluidino-3-pyridyl)sulfonyl] urea], for which the “solubility relative to crystalline forms of torsemide” value in series [2] was “more soluble than crystalline forms of torsemide”.
